Tests used:
Assay type in all cases: in vivo
[1] = tested on: ivyleaf morningglory (Ipomoea hederacea, IPOHE); experiment: Post-emerge test, greenhouse herbicide activity screening; conditions: post-emerge, 14 days after application, rating scale 0-100
Outline: (§1)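 Herbicidal damage is scored 0 (none) to 100 (complete plant death) two weeks after a simulated field spray. Rates span 15–1000 g ai/ha, delivered in acetone at 187 l/ha. For post-emergence treatments, plants have 2–3 leaves and the spray carries 0.25% v/v non-ionic surfactant.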

[2] = tested on: redroot pigweed (Amaranthus retroflexus, AMARE); experiment: as above; conditions: post-emerge, 14 days after application
Outline: as §1

[3] = tested on: velvetleaf (Abutilon theophrasti, ABUTH); experiment: as above; conditions: post-emerge, 14 days after application, rating scale 0-100
Outline: as §1

[4] = tested on: green foxtail (Setaria viridis, SETVI); experiment: as above; conditions: post-emerge, 14 days after application, rating scale 0-100
Outline: as §1

[5] = tested on: johnsongrass (Sorghum halepense, SORHA); experiment: as above; conditions: post-emerge, 14 days after application, rating scale 0-100
Outline: as §1

[6] = tested on: sicklepod (Cassia obtusifolia, CASOB); experiment: as above; conditions: post-emerge, 14 days after application, rating scale 0-100
Outline: as §1

[7] = tested on: barnyardgrass (Echinochloa crus-galli, ECHCG); experiment: as above; conditions: post-emerge, 14 days after application, rating scale 0-100
Outline: as §1

[8] = tested on: large crabgrass (Digitaria sanguinalis, DIGSA); experiment: as above; conditions: post-emerge, 14 days after application, rating scale 0-100
Outline: as §1

[9] = tested on: upland rice (Oryza sp., var. Tebonnet, RICE); experiment: Post-emerge test, crop safety; conditions: post-emerge, 14 days after application, rating scale 0-100
Outline: (§2)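 Applied at 15–1000 g ai/ha from acetone in 187 l/ha spray volume. Post-emergence applications included 0.25% v/v non-ionic surfactant and reached plants sown 8–21 days before. Pre-emergence applications were incorporated by surface watering. Efficacy or crop damage was rated on a 0–100 scale after 14 days.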

[10] = tested on: field corn (Zea mays L., var. Dekalb 535, CORN); experiment: Post-emerge test, crop safety; conditions: post-emerge, 14 days after application, rating scale 0-100
Outline: as §2

[11] = tested on: redroot pigweed (Amaranthus retroflexus, AMARE); experiment: Pre-emerge test, greenhouse herbicide activity screening; conditions: pre-emerge, 14 days after application, rating scale 0-100
Outline: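 Compounds in acetone were track-sprayed at 15-1000 g ai/ha (187 l/ha) on sandy loam pots: pre-emerge one day after seeding, post-emerge at 2-3 leaf stage with 0.25% v/v non-ionic surfactant. Phytotoxicity was rated 14 days later on a 0 (no damage) to 100 (complete death) scale.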

[12] = tested on: upland rice (Oryza sp., var. Tebonnet, RICE); experiment: Pre-emerge test, crop safety; conditions: pre-emerge, 14 days after application, rating scale 0-100
Outline: (§3)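 Sandy loam pots; pre-emerge: sown 1 d pre-spray, surface-watered after, then bottom-watered. Post-emerge: sown 8–21 d before, 2–3 leaf stage, + 0.25% v/v NIS, bottom-watered. Acetone, 187 l/ha track spray, 15–1000 g ai/ha. 0–100 injury score, day 14.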

[13] = tested on: field corn (Zea mays L., var. Dekalb 535, CORN); experiment: Pre-emerge test, crop safety; conditions: pre-emerge, 14 days after application, rating scale 0-100
Outline: as §3

[14] = tested on: ivyleaf morningglory (Ipomoea hederacea, IPOHE); experiment: Pre-emerge test, greenhouse herbicide activity screening; conditions: pre-emerge, 14 days after application, rating scale 0-100
Outline: as §2

[15] = tested on: velvetleaf (Abutilon theophrasti, ABUTH); experiment: as above; conditions: pre-emerge, 14 days after application, rating scale 0-100
Outline: as §2

[16] = tested on: green foxtail (Setaria viridis, SETVI); experiment: as above; conditions: pre-emerge, 14 days after application, rating scale 0-100
Outline: as §2

[17] = tested on: johnsongrass (Sorghum halepense, SORHA); experiment: as above; conditions: pre-emerge, 14 days after application, rating scale 0-100
Outline: as §2

[18] = tested on: lambsquarters (Chenopodium album, CHEAL); experiment: as above; conditions: pre-emerge, 14 days after application, rating scale 0-100
Outline: as §2

[19] = tested on: sicklepod (Cassia obtusifolia, CASOB); experiment: as above; conditions: pre-emerge, 14 days after application, rating scale 0-100
Outline: as §2

[20] = tested on: barnyardgrass (Echinochloa crus-galli, ECHCG); experiment: as above; conditions: pre-emerge, 14 days after application, rating scale 0-100
Outline: as §2

[21] = tested on: large crabgrass (Digitaria sanguinalis, DIGSA); experiment: as above; conditions: pre-emerge, 14 days after application, rating scale 0-100
Outline: as §2

SMILES: COc1c(Cl)cc(F)c(-n2c(=O)cc(C(F)(F)F)n(C)c2=O)c1NNC(=O)C1CC1 [Compound 15-2, 3-[4-chloro-2-(2-cycopropanecarbonyldiazanyl)-6-fluoro-3-methoxyphenyl]-1-methyl-6-trifluoromethyl-2,4(1H, 3H)-pyrimidinedione]
- Post-emerge Herbicidal Activity IPOHE (phytotoxicity rating) ([1]; 63 g ai/ha): 90
- Post-emerge Herbicidal Activity IPOHE (phytotoxicity rating) ([1]; 250 g ai/ha): 100
- Post-emerge Herbicidal Activity AMARE (phytotoxicity rating) ([2]; 63 g ai/ha, rating scale 0-100 (0 no damage, 100 complete death)): 20
- Post-emerge Herbicidal Activity AMARE (phytotoxicity rating) ([2]; 250 g ai/ha, rating scale 0-100): 95
- Post-emerge Herbicidal Activity ABUTH (phytotoxicity rating) ([3]; 63 g ai/ha): 80
- Post-emerge Herbicidal Activity ABUTH (phytotoxicity rating) ([3]; 250 g ai/ha): 100
- Post-emerge Herbicidal Activity SETVI (phytotoxicity rating) ([4]; 63 g ai/ha): 0
- Post-emerge Herbicidal Activity SETVI (phytotoxicity rating) ([4]; 250 g ai/ha): 80
- Post-emerge Herbicidal Activity SORHA (phytotoxicity rating) ([5]; 63 g ai/ha): 0
- Post-emerge Herbicidal Activity SORHA (phytotoxicity rating) ([5]; 250 g ai/ha): 70
- Post-emerge Herbicidal Activity CASOB (phytotoxicity rating) ([6]; 63 g ai/ha): 10
- Post-emerge Herbicidal Activity CASOB (phytotoxicity rating) ([6]; 250 g ai/ha): 75
- Post-emerge Herbicidal Activity ECHCG (phytotoxicity rating) ([7]; 63 g ai/ha): 0
- Post-emerge Herbicidal Activity ECHCG (phytotoxicity rating) ([7]; 250 g ai/ha): 90
- Post-emerge Herbicidal Activity DIGSA (phytotoxicity rating) ([8]; 63 g ai/ha): 0
- Post-emerge Herbicidal Activity DIGSA (phytotoxicity rating) ([8]; 250 g ai/ha): 80
- Post-emerge Herbicidal Activity RICE (crop damage rating) ([9]; 63 g ai/ha): 50
- Post-emerge Herbicidal Activity RICE (crop damage rating) ([9]; 250 g ai/ha): 75
- Post-emerge Herbicidal Activity CORN (crop damage rating) ([10]; 63 g ai/ha): 15
- Post-emerge Herbicidal Activity CORN (crop damage rating) ([10]; 250 g ai/ha): 80
- phytotoxicity rating AMARE ([11]; 63 g ai/ha): 100
- phytotoxicity rating AMARE ([11]; 250 g ai/ha): 100
- phytotoxicity rating RICE ([12]; 63 g ai/ha): 99
- phytotoxicity rating RICE ([12]; 250 g ai/ha): 100
- phytotoxicity rating CORN ([13]; 63 g ai/ha): 80
- phytotoxicity rating CORN ([13]; 250 g ai/ha): 100
- phytotoxicity rating IPOHE ([14]; 63 g ai/ha): 10
- phytotoxicity rating IPOHE ([14]; 250 g ai/ha): 100
- phytotoxicity rating ABUTH ([15]; 63 g ai/ha): 100
- phytotoxicity rating ABUTH ([15]; 250 g ai/ha): 100
- phytotoxicity rating SETVI ([16]; 63 g ai/ha): 100
- phytotoxicity rating SETVI ([16]; 250 g ai/ha): 100
- phytotoxicity rating SORHA ([17]; 63 g ai/ha): 100
- phytotoxicity rating SORHA ([17]; 250 g ai/ha): 100
- phytotoxicity rating CHEAL ([18]; 63 g ai/ha): 100
- phytotoxicity rating CHEAL ([18]; 250 g ai/ha): 100
- phytotoxicity rating CASOB ([19]; 63 g ai/ha): 100
- phytotoxicity rating CASOB ([19]; 250 g ai/ha): 100
- phytotoxicity rating ECHCG ([20]; 63 g ai/ha): 100
- phytotoxicity rating ECHCG ([20]; 250 g ai/ha): 100
- phytotoxicity rating DIGSA ([21]; 63 g ai/ha): 100
- phytotoxicity rating DIGSA ([21]; 250 g ai/ha): 100

— patent US6355799B1, “Substituted benzene compounds, process for their preparation, and herbicidal and defoliant compositions containing them” (ISK Americas Incorporated, priority 1997, dated 2002)
